Measured values as given in patent US10913744B2, “LRRK2 inhibitors and methods of making and using the same” (Dana-Farber Cancer Institute, Inc., priority 2015, dated 2021).
Like-named read-outs stand apart in the source and are kept apart here.

Key:
HIPK3 = HIPK3 (Homo sapiens (Human), UniProt Q9H422); assay: Dundee profiling
GFP-LRRK2[G2019S] = GFP-LRRK2[G2019S] (Homo sapiens (Human), UniProt Q5S007, G2019S); assay: Ser910/Ser935 phosphorylation immunoblot in HEK293 cells; format: cell-based; conditions: 90 min
Procedure: (§1) FIG. 2A-2D show inhibition of LRRK2 by Compound 18. HEK293 cells stably expressing FIG. 2A: wild-type GFP-LRRK2, FIG. 2B: GFP-LRRK2[G2019S], FIG. 2C: GFP-LRRK2[G2019S+A2016T], and FIG. 2D: GFP-LRRK2[A2016T] were treated with dimethylsulfoxide (DMSO) or increasing concentrations of Compound 18 for 90 min (1 μM of LRRK2-IN-1 was used as a control). Cell lysates were subjected to immunoblotting for detection of LRRK2 phosphorylated at Ser910 and Ser935 and for total LRRK2.
(§2) HEK293 and Swiss 3T3 cells were cultured in DMEM (Dulbecco's Modified Eagle's medium) supplemented with 10% FBS (fetal bovine serum), 2 mM glutamine and 1× penicillin/streptomycin solution. HEK-293 T-Rex cell lines were cultured in DMEM supplemented with 10% (v/v) FBS and 2 mM glutamine, lx penicillin/streptomycin solution, 15 μg/ml blastocidin and 100 μg/ml hygromycin. T-Rex cultures were induced to express the indicated protein by inclusion of 0.1 μg/ml doxycycline in the culture medium for 24-48 hr. […] Protein concentrations were determined following centrifugation of the lysate at 16,000×g at 4° C. for 20 minutes using the Bradford method with BSA as the standard. […]
(§3) As there are no validated direct phosphorylation substrates of LRRK2, phosphorylation of Ser910 and Ser935, two residues whose phosphorylation is known to be dependent upon LRRK2 kinase activity, was monitored.

wild-type GFP-LRRK2 = wild-type GFP-LRRK2 (Homo sapiens (Human), UniProt Q5S007); assay: as above; format: cell-based; conditions: 90 min
Procedure: as §1, §2, §3

PKBa = PKBa (Homo sapiens (Human), UniProt P31749); assay: Dundee profiling
Sequence of PKBa (P31749 whole entry): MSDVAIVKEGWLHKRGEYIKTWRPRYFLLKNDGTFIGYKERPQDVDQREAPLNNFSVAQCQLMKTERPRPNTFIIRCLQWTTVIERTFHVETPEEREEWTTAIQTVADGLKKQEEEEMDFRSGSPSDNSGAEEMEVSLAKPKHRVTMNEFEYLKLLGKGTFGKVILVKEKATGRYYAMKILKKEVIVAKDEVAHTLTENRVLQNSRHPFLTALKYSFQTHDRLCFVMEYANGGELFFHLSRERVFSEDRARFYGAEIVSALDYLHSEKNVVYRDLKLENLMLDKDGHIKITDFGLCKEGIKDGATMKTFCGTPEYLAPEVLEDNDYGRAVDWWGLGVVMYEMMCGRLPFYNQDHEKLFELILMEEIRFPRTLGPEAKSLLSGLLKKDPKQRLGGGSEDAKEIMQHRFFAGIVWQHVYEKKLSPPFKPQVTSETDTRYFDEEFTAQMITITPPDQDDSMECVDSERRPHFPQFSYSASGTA

MLK3 = MLK3 (Homo sapiens (Human), UniProt Q16584); assay: Dundee profiling
Sequence of MLK3 (Q16584 whole entry, looked up, species assumed): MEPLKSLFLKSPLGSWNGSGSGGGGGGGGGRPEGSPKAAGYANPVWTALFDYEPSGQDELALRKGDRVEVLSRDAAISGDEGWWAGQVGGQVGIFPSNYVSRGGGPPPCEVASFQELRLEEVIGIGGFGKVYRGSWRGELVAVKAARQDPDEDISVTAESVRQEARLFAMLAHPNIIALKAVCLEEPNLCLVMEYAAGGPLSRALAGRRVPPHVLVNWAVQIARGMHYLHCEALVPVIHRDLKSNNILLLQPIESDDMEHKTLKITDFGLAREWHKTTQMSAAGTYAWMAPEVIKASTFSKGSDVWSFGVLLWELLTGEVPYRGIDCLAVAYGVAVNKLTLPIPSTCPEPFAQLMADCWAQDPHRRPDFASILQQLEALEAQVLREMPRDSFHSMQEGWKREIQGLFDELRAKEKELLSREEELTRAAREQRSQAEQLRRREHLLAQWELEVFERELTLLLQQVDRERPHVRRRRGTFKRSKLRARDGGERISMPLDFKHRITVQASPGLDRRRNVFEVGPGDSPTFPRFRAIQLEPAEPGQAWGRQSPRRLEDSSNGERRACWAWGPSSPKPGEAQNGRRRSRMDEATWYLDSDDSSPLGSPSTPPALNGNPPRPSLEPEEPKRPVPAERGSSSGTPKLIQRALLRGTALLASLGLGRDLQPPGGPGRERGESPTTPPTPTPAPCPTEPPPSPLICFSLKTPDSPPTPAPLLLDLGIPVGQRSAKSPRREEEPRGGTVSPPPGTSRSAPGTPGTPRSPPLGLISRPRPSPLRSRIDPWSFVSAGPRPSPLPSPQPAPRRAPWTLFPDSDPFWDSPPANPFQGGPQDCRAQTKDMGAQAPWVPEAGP

BRSK2 = BRSK2 (Homo sapiens (Human), UniProt Q8IWQ3); assay: Dundee profiling
Sequence of BRSK2 (Q8IWQ3 whole entry, looked up, species assumed): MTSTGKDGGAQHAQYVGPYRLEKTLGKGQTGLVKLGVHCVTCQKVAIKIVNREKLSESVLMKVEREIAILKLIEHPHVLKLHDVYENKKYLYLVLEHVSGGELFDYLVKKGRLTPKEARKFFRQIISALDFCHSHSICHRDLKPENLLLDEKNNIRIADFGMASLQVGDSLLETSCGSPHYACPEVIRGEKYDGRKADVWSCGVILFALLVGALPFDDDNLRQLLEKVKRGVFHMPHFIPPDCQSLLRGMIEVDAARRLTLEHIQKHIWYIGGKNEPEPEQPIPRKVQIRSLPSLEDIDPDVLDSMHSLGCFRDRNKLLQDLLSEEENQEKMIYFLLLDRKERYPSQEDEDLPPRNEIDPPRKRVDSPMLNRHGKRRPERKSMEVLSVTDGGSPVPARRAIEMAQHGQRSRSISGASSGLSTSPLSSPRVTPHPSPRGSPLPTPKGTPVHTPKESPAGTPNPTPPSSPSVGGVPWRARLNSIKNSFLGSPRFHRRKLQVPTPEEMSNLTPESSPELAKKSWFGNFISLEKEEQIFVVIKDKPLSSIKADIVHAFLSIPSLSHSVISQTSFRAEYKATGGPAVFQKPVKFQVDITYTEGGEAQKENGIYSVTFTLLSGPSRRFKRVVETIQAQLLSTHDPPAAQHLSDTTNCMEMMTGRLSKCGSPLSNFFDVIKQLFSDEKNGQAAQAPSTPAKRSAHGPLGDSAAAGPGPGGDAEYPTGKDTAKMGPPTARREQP

JNK1 = JNK1 (Homo sapiens (Human), UniProt P45983); assay: KinomeScan; format: binding; conditions: 1 uM
TAO1 = TAO1 (Homo sapiens (Human), UniProt Q7L7X3); assay: Dundee profiling
[1] = target: RSK4 (Kin.Dom.2-C-terminal) (Homo sapiens (Human), UniProt Q9UK32); assay: KinomeScan; format: binding; conditions: 1 uM
DDR2 = DDR2 (Homo sapiens (Human), UniProt Q16832); assay: Dundee profiling
SGK1 = SGK1 (Homo sapiens (Human), UniProt O00141); assay: Dundee profiling
Sequence of SGK1 (O00141 whole entry, species assumed): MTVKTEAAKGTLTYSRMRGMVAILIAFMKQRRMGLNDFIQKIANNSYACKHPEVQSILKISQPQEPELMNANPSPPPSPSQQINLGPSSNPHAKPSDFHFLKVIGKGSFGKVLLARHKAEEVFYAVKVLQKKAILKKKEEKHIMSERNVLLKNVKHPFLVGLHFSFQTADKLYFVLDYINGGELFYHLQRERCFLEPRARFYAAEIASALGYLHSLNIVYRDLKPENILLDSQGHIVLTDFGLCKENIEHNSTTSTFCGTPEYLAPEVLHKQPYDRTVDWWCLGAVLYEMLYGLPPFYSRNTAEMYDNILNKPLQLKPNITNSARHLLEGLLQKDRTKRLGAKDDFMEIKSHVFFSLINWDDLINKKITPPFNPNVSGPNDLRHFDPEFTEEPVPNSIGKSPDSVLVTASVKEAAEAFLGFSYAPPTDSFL

CK1δ = CK1δ (Homo sapiens (Human), UniProt P48730); assay: Dundee profiling
Sequence of CK1δ (P48730 whole entry): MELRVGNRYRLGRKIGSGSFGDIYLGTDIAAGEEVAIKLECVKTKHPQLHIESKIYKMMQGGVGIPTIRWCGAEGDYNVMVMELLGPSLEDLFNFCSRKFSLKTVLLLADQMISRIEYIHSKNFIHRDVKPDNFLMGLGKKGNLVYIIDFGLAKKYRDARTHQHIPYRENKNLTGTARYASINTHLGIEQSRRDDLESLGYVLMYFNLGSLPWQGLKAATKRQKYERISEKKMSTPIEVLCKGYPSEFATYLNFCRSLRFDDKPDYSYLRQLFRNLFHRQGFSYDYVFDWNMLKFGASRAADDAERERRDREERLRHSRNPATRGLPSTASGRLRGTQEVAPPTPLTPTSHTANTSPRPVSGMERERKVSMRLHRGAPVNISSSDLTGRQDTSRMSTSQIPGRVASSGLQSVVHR

MARK3 = MARK3 (Homo sapiens (Human), UniProt P27448); assay: Dundee profiling
Sequence of MARK3 (P27448 whole entry, species assumed): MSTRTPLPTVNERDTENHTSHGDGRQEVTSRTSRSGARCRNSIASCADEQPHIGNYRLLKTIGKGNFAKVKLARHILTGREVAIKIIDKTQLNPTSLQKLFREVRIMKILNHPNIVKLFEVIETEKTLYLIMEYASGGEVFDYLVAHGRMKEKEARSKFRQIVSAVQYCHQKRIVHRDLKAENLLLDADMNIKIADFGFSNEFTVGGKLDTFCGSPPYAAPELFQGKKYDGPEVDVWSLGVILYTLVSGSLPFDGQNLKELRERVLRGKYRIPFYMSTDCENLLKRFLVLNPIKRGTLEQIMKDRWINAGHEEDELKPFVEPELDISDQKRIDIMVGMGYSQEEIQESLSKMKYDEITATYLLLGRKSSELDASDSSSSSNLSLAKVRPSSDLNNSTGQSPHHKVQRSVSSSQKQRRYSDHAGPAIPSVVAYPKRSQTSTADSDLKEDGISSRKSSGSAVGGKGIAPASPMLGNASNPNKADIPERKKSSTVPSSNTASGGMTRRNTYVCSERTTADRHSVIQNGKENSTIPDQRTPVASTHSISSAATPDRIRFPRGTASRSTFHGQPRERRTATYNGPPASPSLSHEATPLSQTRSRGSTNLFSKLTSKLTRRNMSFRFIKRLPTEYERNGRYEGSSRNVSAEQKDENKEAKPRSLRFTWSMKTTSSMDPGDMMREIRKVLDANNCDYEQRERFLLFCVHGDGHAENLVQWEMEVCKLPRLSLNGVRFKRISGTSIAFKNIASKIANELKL

MAPKAP-K2 = MAPKAP-K2 (Homo sapiens (Human), UniProt P49137); assay: Dundee profiling
PKBb = PKBb (Homo sapiens (Human), UniProt P31751); assay: Dundee profiling
MARK4 = MARK4 (Homo sapiens (Human), UniProt Q96L34); assay: Dundee profiling
SNARK = SNARK (Homo sapiens (Human), UniProt Q9H093); assay: KinomeScan; format: binding; conditions: 1 uM
Src = Src (Homo sapiens (Human), UniProt P12931); assay: Dundee profiling
LZK = LZK (Homo sapiens (Human), UniProt O43283); assay: KinomeScan; format: binding; conditions: 1 uM
[2] = read-out: percent remaining enzymatic activity, I1, 1 μM
[3] = read-out: percent remaining enzymatic activity, I10
[4] = read-out: percent remaining enzymatic activity

Sequence of HIPK3 (Q9H422 whole entry, looked up, species assumed): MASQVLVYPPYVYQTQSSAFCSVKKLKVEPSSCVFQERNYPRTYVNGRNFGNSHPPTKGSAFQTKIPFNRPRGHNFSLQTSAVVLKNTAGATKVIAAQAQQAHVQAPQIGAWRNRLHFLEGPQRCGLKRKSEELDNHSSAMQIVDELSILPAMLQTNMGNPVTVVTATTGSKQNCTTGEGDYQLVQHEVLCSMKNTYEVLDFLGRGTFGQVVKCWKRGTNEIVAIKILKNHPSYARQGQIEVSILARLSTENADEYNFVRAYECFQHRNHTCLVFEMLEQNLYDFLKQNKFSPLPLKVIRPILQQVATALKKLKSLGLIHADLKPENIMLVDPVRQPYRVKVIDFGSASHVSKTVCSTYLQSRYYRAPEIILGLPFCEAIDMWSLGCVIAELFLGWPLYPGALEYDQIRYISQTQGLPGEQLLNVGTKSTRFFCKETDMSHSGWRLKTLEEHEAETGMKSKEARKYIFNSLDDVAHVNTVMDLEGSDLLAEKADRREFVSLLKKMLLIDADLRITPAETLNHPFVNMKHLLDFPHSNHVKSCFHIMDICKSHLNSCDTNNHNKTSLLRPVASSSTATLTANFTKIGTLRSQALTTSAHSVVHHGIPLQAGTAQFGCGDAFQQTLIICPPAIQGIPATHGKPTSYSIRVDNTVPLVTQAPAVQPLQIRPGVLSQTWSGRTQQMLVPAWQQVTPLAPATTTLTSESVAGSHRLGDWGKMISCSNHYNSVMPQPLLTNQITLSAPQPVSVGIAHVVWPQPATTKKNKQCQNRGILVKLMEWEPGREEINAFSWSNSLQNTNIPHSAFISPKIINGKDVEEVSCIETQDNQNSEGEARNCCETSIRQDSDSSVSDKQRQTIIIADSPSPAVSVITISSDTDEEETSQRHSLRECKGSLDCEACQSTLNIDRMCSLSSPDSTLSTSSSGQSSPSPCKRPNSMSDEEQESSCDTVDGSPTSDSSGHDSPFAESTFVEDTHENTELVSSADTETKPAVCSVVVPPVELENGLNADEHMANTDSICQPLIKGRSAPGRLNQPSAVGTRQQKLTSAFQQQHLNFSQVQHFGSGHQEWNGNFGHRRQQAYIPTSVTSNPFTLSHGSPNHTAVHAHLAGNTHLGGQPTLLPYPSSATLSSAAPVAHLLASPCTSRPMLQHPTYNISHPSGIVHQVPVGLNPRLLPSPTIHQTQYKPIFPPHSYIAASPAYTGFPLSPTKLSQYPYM

CNc1nc(Nc2ccc(C(=O)N3CCOCC3)cc2OC)nc2[nH]cc(Cl)c12 [Compound 18, (4-((5-chloro-4-(methylamino)-7H-pyrrolo[2,3-d]pyrimidin-2-yl)amino)-3-methoxyphenyl)(morpholino)methanone]
remaining activity at 1 µM (HIPK3; [2]): 106%
remaining activity at 1 µM (HIPK3; [3]): 93%
concentration giving substantial dephosphorylation of Ser910 and Ser935 (GFP-LRRK2[G2019S]): approximately 0.3
concentration giving substantial dephosphorylation of Ser910 and Ser935 (wild-type GFP-LRRK2): approximately 0.3
remaining activity at 1 µM (PKBa; [2]): 101%
remaining activity at 1 µM (PKBa; [3]): 105%
percent remaining enzymatic activity (MLK3; I10): 35%
remaining activity at 1 µM (MLK3; [4]): 78%
remaining activity at 1 µM (BRSK2; [2]): 110%
remaining activity at 1 µM (BRSK2; [3]): 98%
KinomeScan value (JNK1): 60
remaining activity at 1 µM (TAO1; [2]): 113%
remaining activity at 1 µM (TAO1; [3]): 100%
KinomeScan value [1]: 90
remaining activity at 1 µM (DDR2; [2]): 98%
remaining activity at 1 µM (DDR2; [3]): 93%
remaining activity at 1 µM (SGK1; [2]): 86%
remaining activity at 1 µM (SGK1; [3]): 76%
remaining activity at 1 µM (CK1δ; [2]): 74%
remaining activity at 1 µM (CK1δ; [3]): 33%
remaining activity at 1 µM (MARK3; [2]): 120%
remaining activity at 1 µM (MARK3; [3]): 92%
remaining activity at 1 µM (MAPKAP-K2; [2]): 86%
remaining activity at 1 µM (MAPKAP-K2; [3]): 40%
remaining activity at 1 µM (PKBb; [2]): 118%
remaining activity at 1 µM (PKBb; [3]): 103%
percent remaining enzymatic activity (MARK4; I10): 98%
remaining activity at 1 µM (MARK4; [4]): 109%
KinomeScan value (SNARK): 100
remaining activity at 1 µM (Src; [2]): 110%
remaining activity at 1 µM (Src; [3]): 102%
KinomeScan value (LZK): 92
